Assay [1] has as its target T1, α-amylase (Sus scrofa, UniProt P00690).
T1 sequence (P00690 16-511): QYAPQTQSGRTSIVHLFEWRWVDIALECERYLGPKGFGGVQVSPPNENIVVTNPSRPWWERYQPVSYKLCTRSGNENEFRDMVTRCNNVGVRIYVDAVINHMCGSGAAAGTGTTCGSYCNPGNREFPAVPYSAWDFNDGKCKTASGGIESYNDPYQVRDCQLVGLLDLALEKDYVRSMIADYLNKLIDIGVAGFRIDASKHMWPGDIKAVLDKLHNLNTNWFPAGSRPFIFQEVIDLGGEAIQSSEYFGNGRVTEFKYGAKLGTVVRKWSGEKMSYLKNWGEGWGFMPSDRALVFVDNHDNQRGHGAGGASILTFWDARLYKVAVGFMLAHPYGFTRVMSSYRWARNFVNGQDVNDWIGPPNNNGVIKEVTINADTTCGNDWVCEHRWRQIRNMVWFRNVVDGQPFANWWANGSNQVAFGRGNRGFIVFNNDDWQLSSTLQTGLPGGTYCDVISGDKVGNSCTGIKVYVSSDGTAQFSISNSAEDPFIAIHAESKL
The experiment in a line: α-amylase inhibition (starch–iodine method). As to conditions: for inhibition at 100 µg/mL: read-out: percentage inhibition of α-amylase.
Description: The inhibition of α-amylase was determined using starch–iodine method with few modifications [64, 65]. Next, 50 µL of α-amylase from porcine pancreas in pH 6.9 phosphate buffer prepared with 6 mM NaCl and 25 µL of sample solutions was mixed in a 96-well microplate. The mixture was pre-incubated for 10 min at 37 °C. Next, 50 µL of starch solution (0.05%) was added and incubated for 10 min at 37 °C. Following incubation, the reaction was completed by adding HCl (0.1 M, 25 µL) and Lugol (100 µL) solutions, and the absorbance was recorded at 630 nm using a Multiskan Go microplate reader spectrophotometer (Thermo Fischer Scientific, Waltham, MA, USA).

The test system of assay [2] is α-glucosidase. The experiment in a line: α-glucosidase inhibitory activity (PNPG substrate). More on the design: IC50 ± SEM (α-glucosidase): unit not given beside the values. Particulars: for percentage inhibition of α-glucosidase: at 100 µg/mL; for IC50 α-Glucosidase: mean ± SEM of three measurements, highest test concentration 100 µg/mL; for IC50 ± SEM (α-glucosidase): Table 2 prints no unit, repeats Table 1 values.

For assay [3], the target named is T2, acetylcholinesterase (AChE) (Electrophorus electricus, UniProt O42275). The experiment in a line: biochemical. Particulars: for inhibition at 100 µg/mL: read-out: percentage inhibition of AChE, at 100 µg/mL.
Assay [4] addresses butyrylcholinesterase (BChE) (Equus caballus, UniProt P81908). The experiment in a line: biochemical. Particulars: for inhibition at 100 µg/mL: read-out: percentage inhibition of BChE.
Description: The anticholinesterase activity of the extracts and compounds was determined spectrophotometrically via the acetylcholinesterase (AChE) and butyrylcholinesterase (BChE) enzyme inhibition assay method described by Ellman with minor modifications [62, 63]. AChE and BChE from electric eel and horse serum, respectively, were used. The substrates of the reactions were acetylthiocholine iodide and butyrylthiocholine chloride. The activity of the cholinesterase was monitored using DTNB (5,5′-Dithio-bis(2-nitrobenzoic) acid). […] A Multiskan Go microplate reader spectrophotometer (Thermo Fischer Scientific, Waltham, MA, USA) was used to read optical densities.
Assay [5] deals with T2, acetylcholinesterase (AChE). As to conditions: read-out: IC50 ± SEM (Acetylcholinesterase); Table 2 prints no unit; repeats Table 1 values.

Experimental findings from article PMC10304387, “In Vitro and In Silico Evaluation of Anticholinesterase and Antidiabetic Effects of Furanolabdanes and Other Constituents from Graptophyllum pictum (Linn.) Griffith” (Molecules, 2023) are described below.

Values after ≈ are worked out from the molar mass of the structure shown. Where two headings read alike, the source gives them in different places. Bounds are passed on as bounds.

Sequence of butyrylcholinesterase (BChE) (P81908 whole entry): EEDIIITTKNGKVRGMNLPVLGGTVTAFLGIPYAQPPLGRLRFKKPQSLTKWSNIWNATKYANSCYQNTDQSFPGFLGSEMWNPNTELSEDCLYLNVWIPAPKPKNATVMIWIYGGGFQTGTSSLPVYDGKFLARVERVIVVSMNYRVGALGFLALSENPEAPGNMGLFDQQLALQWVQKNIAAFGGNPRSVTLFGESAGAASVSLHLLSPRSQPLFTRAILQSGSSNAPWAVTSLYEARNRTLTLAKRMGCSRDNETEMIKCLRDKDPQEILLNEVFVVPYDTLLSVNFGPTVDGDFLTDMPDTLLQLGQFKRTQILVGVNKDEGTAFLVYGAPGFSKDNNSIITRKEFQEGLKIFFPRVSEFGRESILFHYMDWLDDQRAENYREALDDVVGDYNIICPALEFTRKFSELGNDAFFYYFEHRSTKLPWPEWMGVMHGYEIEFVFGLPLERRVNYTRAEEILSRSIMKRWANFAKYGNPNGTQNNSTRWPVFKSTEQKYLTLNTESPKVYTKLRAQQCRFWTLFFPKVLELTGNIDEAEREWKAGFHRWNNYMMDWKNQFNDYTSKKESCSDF
T2 sequence (O42275 24-633): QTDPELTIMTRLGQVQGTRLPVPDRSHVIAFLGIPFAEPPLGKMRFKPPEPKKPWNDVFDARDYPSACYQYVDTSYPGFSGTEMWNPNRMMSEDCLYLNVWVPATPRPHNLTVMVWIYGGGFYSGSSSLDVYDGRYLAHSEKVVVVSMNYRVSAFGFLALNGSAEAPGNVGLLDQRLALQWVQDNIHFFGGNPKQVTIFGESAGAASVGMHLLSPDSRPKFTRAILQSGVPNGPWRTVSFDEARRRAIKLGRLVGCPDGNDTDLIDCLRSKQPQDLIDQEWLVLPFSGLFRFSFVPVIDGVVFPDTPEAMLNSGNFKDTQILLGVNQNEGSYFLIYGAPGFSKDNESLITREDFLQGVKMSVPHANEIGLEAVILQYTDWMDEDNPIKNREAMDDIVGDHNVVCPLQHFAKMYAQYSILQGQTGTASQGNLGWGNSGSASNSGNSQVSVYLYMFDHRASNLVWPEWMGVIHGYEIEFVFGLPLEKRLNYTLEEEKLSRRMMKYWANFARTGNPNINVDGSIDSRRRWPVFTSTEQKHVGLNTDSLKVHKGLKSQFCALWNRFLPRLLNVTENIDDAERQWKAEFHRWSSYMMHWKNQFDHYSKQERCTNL

`C[C@H]1O[C@H](O[C@H]2[C@H](O)[C@@H](O)[C@@H](O[C@H]3[C@H](O)[C@@H](O)C(O)O[C@@H]3CO)O[C@@H]2CO)[C@H](O)[C@@H](O)[C@@H]1N[C@H]1C=C(CO)[C@@H](O)[C@H](O)[C@H]1O` (stereo partly drawn) [Acarbose, acarbose, reference compound]: the inhibition at 100 µg/mL in assay [1] came to 75.84 ± 0.52%. Moreover, the “percentage inhibition of α-glucosidase” value in assay [2] is given as 51.35 ± 0.65%.
For `C=C(C)[C@@H]1CC[C@]2(C)CC[C@]3(C)[C@H](CC[C@@H]4[C@@]5(C)CC[C@H](O)C(C)(C)[C@@H]5CC[C@]43C)[C@@H]12` [Lupeol], the IC50 in assay [3], in assay [4] and in assay [1] was greater than 234 µM in each case. Moreover, the “percentage inhibition of α-glucosidase” value in assay [2] is recorded as 60.91 ± 0.76%. In assay [2], the “IC50 α-Glucosidase” value came out at 69.75 ± 0.42 µg/mL (≈ 163 µM).
On to `CC[C@H](/C=C/[C@@H](C)[C@H]1CC[C@H]2[C@@H]3CC=C4C[C@@H](O[C@@H]5O[C@H](CO)[C@@H](O)[C@H](O)[C@H]5O)CC[C@]4(C)[C@H]3CC[C@]12C)C(C)C` [Stigmasterol glucoside, Stigmasterol 3-O-β-D-glucopyranoside], for which the IC50 in assay [3], in assay [4] and in assay [1] was greater than 174 µM each time. The inhibition at 100 µg/mL in assay [3] stood at 25.2 ± 0.94%. In addition, the “IC50 α-Glucosidase” value in assay [2] is recorded as greater than 100 µg/mL.
Turning to `COc1ccc2c3c1O[C@H]1C[C@@H](O)C=C[C@@]31CCN(C)C2` [Galantamine, galantamine, reference compound], the inhibition at 100 µg/mL in assay [4] worked out at 73.85 ± 0.3%.
With `CC[C@H](CC[C@@H](C)[C@H]1CC[C@H]2[C@@H]3CC=C4C[C@@H](O[C@@H]5O[C@H](CO)[C@@H](O)[C@H](O)[C@H]5O)CC[C@]4(C)[C@H]3CC[C@]12C)C(C)C` [β-Sitosterol glucoside, 3β-O-D-glucopyranosyl-β-sitosterol], the IC50 in assay [3], in assay [4] and in assay [1] was greater than 173 µM throughout. For the same compound, the inhibition at 100 µg/mL in assay [3] amounted to 30.45 ± 0.23%. Further, in assay [2], the “IC50 α-Glucosidase” value was greater than 100 µg/mL.
As for `CC1=CC2OC3OCC4(CCCC3(C)C24)C1CC(=O)c1ccoc1` (stereo not drawn) [Hypopurin E], the IC50 – broadly, the point on the concentration scale where inhibition reaches its midpoint – is greater than 304 µM in assay [5], greater than 304 µM in assay [3], 265 µM in assay [4] and 225 µM in assay [1]. The results for the inhibition at 100 µg/mL in assay [3], in assay [4] and in assay [1] were 20.4 ± 0.56%, 52.8 ± 1.07% and 53.9 ± 0.52%, respectively. In addition, the “IC50 ± SEM (α-glucosidase)” value in assay [2] is on record as 76.33 ± 1.10. Also, the “percentage inhibition of α-glucosidase” value in assay [2] came to 54.79 ± 0.85%. In addition, the “IC50 α-Glucosidase” value in assay [2] is 76.33 ± 1.10 µg/mL (≈ 232 µM).
As for `CC1=C[C@H]2OC3OC(=O)[C@@]4(C)CCC[C@@]3([C@@H]24)[C@H]1CC(=O)c1ccoc1` [Hypopurin B], the IC50 in assay [5] is greater than 292 µM. In addition, in assay [3], the IC50 was greater than 292 µM and the inhibition at 100 µg/mL was found to be 24.8 ± 0.33%. In addition, in assay [4], the IC50 is 196 µM and the inhibition at 100 µg/mL worked out at 61.8 ± 1.15%. In addition, in assay [1], the IC50 is 203 µM and the inhibition at 100 µg/mL amounted to 56.68 ± 0.24%. For the same compound, in assay [2], the “IC50 ± SEM (α-glucosidase)” value stood at 71.41 ± 0.98, the “percentage inhibition of α-glucosidase” value is on record as 51.95 ± 0.63% and the “IC50 α-Glucosidase” value worked out at 71.41 ± 0.98 µg/mL (≈ 209 µM).
For the compound `CC1=C[C@H]2OC(=O)[C@@]3(C)CCC[C@@](C)([C@@H]23)[C@H]1CC(=O)c1ccoc1` [Hypopurin A], the IC50 in assay [5] is greater than 304 µM. In assay [3], the IC50 was greater than 304 µM and the inhibition at 100 µg/mL was found to be 40.2 ± 0.75%. Also, in assay [4], 177 µM corresponded to half-maximal inhibition (IC50) and the inhibition at 100 µg/mL was determined as 64.8 ± 0.93%. Besides, in assay [1], the IC50 is 185 µM and the inhibition at 100 µg/mL came out at 65.8 ± 0.84%. For the same compound, in assay [2], the “IC50 ± SEM (α-glucosidase)” value was determined as 99.25 ± 0.96, the “percentage inhibition of α-glucosidase” value is listed as 50.13 ± 0.81% and the “IC50 α-Glucosidase” value is 99.25 ± 0.96 µg/mL (≈ 302 µM).
